Experimental data from US20040034006A1, “Method of inactivating viral particles in a blood product” (priority 2000, published 2004).
Values joined by “and” are separate entries in the source; they are usually repeats but may differ in a detail not shown here. Equal entries are not always repeated.

Tests used:
[1] = system: red blood cells; experiment: in vivo survival of 51Cr-labeled RBC photodynamically treated and re-infused; settings: one value per monkey (BB26, CO33)
[2] = system: P. aeruginosa; experiment: photodynamic inactivation of bacteria with varying amounts of light; format: cell-based; settings: 25 uM; dependent on amount of light (kJ/m^2); drops from 100%; FIG. 5
[3] = system: S. aureus; experiment: as above; format: cell-based; settings: 25 uM; dependent on amount of light (kJ/m^2); drops from 100%; FIG. 5

## C[n+]1ccc(-c2c3nc(c(-c4cc[n+](C)cc4)c4ccc([nH]4)c(-c4cc[n+](C)cc4)c4nc(c(-c5ccccc5)c5ccc2[nH]5)C=C4)C=C3)cc1.[Cl-].[Cl-].[Cl-] [Sylsens, mono-phenyl-tri-(N-methyl-4-pyridyl)-porphyrin chloride]
[1]; Treated I: re-infused immediately after treatment
  recovery (%) of red blood cells 24 h after re-infusion: 75% and 102%
[1]; Treated II: re-infused after 5 weeks of storage after treatment
  recovery (%) of red blood cells 24 h after re-infusion: 71% and 72%
[2]
  inactivation of bacteria, percentage remaining: ≤ 0.001%
[3]
  inactivation of bacteria, percentage remaining: ≤ 0.001%
